This is an account of results in US10889591B2, “PDE9 inhibitor and use thereof” (Nanjing TransThera Biosciences Co. Ltd., priority 2017, dated 2021).

Molecules are shown by their SMILES. Read-outs that look alike come from different tables or passages of the source. Some results are limits rather than exact numbers.

Data set [1] concerns the target PDE1A1 Enzyme (Homo sapiens (Human), UniProt P54750). As to the kind of experiment: PDE enzymology evaluation, PDE1A1. It counts as biochemical. As for the experimental part:
(§1) Experimental Example 5: PDE Enzymology Evaluation Method
(§2) Test substance: Compounds of the invention, prepared by the corresponding examples of the invention
(§3) 1. Experimental materials and instruments
PDE1A1 Enzyme (BPS, Cat. No. 60010)
(§4) 2. Experimental procedure
(§5) Preparation of the compounds: the compounds were prepared into 10 mM compound stock solution in DMSO for long-term storage. The obtained compound stock solution was diluted in 100 times with DMSO to obtain 100 μM compound working mother solution, and then the compound working mother solution was diluted in 3 times with DMSO to obtain 10 concentration gradients of diluted compound mother liquor (100×).
(§6) Incubation with the compounds: A very small amount of liquid pipetting system Echo was used to pipette the diluted compound mother liquor into a 384-well plate. 200 nL diluted compound mother liquor and 10 μL PDE1A1, PDE3A, PDE5A1 and PDE8A1 enzyme solution were added to each compound well. […] In the maximum reading hole (Max), the compound was replaced by solvent. In the minimum reading hole (Min), the compound and enzyme solution were replaced by solvent.
(§7) Detection: Fluorescence readings (F) at 480 nm/535 nm were detected using a microplate reader.
(§8) Calculation: The inhibition rate was calculated as follows, and IC50 was fitted using GraphPad Prism 5.0: […]

Data set [2] addresses PDE8A1 Enzyme (Homo sapiens (Human), UniProt O60658). The data set can be described thus: PDE enzymology evaluation, PDE8A1. In kind it is biochemical. As for the experimental part:
as §1, §2, §3
PDE8A1 Enzyme (BPS, Cat. No. 60080)
as §4, §5, §6, §7, §8

Data set [3] deals with PDE5A1 Enzyme (Homo sapiens (Human), UniProt O76074). As to the kind of experiment: PDE enzymology evaluation, PDE5A1. In kind it is biochemical. As for the experimental part:
as §1, §2, §3
PDE5A1 Enzyme (BPS, Cat. No. 60050)
as §4, §5, §6, §7, §8

Data set [4] has as its target PDE3A Enzyme (Homo sapiens (Human), UniProt Q14432). As to the kind of experiment: PDE enzymology evaluation, PDE3A. In kind it is biochemical. As for the experimental part: as §1, §2, §3
PDE3A Enzyme (BPS, Cat. No. 60030)
as §4, §5, §6, §7, §8

Data set [5] in a line: Canine pharmacokinetic evaluation. In kind it is in vivo. The following applies: Beagle dogs. An excerpt:
1. Animal Administration and Sample Collection
2. Sample Analysis Method
3. Data Processing Method

A short description of data set [6]: in vitro. The following applies: human, microsomes.
The conditions of data set [7]: human; for CLint: microsomes.
Data set [8] can be described thus: Rat pharmacokinetic evaluation. The following applies: SD rat, intravenous bolus 1 mg/kg; for AUC(0-t) / clearance / half-life: male, Sprague-Dawley, plasma; for AUC(0-t): read-out: AUClast iv; for clearance: read-out: Cl_obs iv (clearance rate) (converted); for half-life: read-out: tz1/2 iv (terminal elimination half-life) (converted). It counts as in vivo, SD male rats.

The nature of data set [9]: Rat pharmacokinetic evaluation. In kind it is in vivo, SD male rats. Particulars: male, Sprague-Dawley, plasma, SD rat; for Tmax / AUC(0-t) / half-life: po, intragastric 5 mg/kg; for Tmax: median; for AUC(0-t): read-out: AUClast po; for half-life: read-out: tz1/2 po (terminal elimination half-life) (converted); for bioavailability: dose iv/po 1/5 mg/kg, read-out: F % (absolute bioavailability). Here is the method: Experimental Example 4: Rat Pharmacokinetic Evaluation of the Compounds of the Invention
Aim: The in vivo pharmacokinetic parameters of the compounds in SD male rats (purchased from Beijing Vital River Animal Technology Co., Ltd.) were evaluated and bioavailability of the compounds was examined.
Animal Administration and Sample Collection:
The solution of compounds 65, 90, 107, 158 was intragastrically administered to SD rat at a dose of 5.0 mg/kg.
The experimental compound 76 was dissolved in 30% DMF+30% PEG400+40% saline to prepare a solution. The solution of compound 76 was intragastrically administered to SD rat at a dose of 5.0 mg/kg.
The experimental compound 76 was dissolved in 30% DMF+30% PEG400+40% saline to prepare a solution.
The experimental compounds 84 and 96 were dissolved in 5% DMSO+10% PEG400+85% (28% HP-β-CD) saline to prepare a solution. The solution of compounds 84 and 96 was intragastrically administered to SD rat at a dose of 5.0 mg/kg.
The experimental compounds 84 and 96 were dissolved in 5% DMSO+10% PEG400+85% (28% HP-β-CD) saline to prepare a solution.
The animals were fixed. The tail was heated with a water bath at 10 min before each time point. About 100 μL of blood from tail vein was collected, and then placed in an anti-coagulation tube containing EDTA-K2 after collection. Blood samples were centrifuged at 8000 rpm at 4° C. for 6 min to obtain plasma samples.
The concentration of test sample was output using Analyst 1.6.1 from AB SCIEX.

For data set [10], the target named is T1, Human PDE9 (Homo sapiens (Human), UniProt O76083). Particulars: background statement, in words; cited from earlier work.
T1 sequence (O76083 whole entry): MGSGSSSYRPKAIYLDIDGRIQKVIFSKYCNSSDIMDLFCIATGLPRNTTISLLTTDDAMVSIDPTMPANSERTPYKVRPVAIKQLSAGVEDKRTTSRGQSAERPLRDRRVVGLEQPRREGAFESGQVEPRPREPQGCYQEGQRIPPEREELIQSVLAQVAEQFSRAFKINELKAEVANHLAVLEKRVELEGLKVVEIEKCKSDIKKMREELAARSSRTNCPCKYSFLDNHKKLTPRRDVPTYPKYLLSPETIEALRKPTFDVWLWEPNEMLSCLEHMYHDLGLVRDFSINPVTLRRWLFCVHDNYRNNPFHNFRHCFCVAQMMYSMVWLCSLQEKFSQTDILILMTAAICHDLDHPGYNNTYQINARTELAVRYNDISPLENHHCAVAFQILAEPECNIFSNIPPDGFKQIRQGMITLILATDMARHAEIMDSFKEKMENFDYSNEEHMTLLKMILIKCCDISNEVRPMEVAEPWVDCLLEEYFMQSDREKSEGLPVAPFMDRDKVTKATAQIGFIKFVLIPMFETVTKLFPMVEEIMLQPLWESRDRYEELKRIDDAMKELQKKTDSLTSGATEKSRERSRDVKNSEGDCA
Data set [11] addresses T1, Human PDE9. The following applies: background statement; read-out: binding constant (Km) of PDE9; cited from earlier work.

PDE3A Enzyme, sequence (Q14432 whole entry): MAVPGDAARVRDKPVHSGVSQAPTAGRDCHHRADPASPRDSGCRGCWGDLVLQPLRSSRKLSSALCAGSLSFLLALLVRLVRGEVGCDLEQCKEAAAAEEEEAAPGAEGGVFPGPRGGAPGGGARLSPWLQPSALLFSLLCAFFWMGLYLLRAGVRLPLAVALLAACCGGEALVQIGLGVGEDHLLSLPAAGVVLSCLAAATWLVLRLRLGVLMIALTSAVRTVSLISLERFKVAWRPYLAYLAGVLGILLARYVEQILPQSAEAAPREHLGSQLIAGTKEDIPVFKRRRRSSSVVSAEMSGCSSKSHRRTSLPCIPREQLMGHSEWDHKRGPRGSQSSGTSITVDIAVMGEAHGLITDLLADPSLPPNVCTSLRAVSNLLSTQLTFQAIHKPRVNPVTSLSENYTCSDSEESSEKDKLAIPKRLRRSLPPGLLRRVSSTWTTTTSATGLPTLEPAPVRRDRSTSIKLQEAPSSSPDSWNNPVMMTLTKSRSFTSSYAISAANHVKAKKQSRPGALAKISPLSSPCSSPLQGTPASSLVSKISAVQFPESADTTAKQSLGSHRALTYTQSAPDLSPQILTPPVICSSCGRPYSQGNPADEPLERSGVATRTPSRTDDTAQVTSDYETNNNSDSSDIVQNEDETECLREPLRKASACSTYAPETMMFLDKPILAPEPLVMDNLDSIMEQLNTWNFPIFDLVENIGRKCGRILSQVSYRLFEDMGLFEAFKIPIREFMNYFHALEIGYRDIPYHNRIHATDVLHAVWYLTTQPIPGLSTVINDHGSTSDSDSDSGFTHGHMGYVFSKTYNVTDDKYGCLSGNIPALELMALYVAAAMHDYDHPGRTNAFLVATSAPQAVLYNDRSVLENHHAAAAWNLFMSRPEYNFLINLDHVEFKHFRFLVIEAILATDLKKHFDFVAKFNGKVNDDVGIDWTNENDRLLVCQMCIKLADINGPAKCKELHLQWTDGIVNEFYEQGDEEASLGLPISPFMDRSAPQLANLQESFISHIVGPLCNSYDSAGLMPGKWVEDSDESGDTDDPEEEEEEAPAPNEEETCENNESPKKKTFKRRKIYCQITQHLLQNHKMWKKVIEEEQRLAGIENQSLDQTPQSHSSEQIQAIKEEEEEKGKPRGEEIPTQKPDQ
PDE1A1 Enzyme, sequence (P54750 whole entry, change not shown): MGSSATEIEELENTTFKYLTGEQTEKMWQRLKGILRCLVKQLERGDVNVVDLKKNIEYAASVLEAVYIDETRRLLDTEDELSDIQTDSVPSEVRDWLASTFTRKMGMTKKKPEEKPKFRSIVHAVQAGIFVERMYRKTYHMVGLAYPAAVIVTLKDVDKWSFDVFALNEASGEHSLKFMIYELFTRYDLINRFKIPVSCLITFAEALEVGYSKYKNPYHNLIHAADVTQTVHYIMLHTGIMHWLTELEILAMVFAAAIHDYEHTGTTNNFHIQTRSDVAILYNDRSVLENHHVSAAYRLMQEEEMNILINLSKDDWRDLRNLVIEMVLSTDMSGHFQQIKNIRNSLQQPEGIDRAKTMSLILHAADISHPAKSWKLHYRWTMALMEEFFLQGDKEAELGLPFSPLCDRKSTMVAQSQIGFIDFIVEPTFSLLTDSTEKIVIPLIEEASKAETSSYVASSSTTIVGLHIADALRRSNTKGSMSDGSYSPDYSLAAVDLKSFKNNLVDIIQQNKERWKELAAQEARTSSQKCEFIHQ
PDE8A1 Enzyme, sequence (O60658 whole entry): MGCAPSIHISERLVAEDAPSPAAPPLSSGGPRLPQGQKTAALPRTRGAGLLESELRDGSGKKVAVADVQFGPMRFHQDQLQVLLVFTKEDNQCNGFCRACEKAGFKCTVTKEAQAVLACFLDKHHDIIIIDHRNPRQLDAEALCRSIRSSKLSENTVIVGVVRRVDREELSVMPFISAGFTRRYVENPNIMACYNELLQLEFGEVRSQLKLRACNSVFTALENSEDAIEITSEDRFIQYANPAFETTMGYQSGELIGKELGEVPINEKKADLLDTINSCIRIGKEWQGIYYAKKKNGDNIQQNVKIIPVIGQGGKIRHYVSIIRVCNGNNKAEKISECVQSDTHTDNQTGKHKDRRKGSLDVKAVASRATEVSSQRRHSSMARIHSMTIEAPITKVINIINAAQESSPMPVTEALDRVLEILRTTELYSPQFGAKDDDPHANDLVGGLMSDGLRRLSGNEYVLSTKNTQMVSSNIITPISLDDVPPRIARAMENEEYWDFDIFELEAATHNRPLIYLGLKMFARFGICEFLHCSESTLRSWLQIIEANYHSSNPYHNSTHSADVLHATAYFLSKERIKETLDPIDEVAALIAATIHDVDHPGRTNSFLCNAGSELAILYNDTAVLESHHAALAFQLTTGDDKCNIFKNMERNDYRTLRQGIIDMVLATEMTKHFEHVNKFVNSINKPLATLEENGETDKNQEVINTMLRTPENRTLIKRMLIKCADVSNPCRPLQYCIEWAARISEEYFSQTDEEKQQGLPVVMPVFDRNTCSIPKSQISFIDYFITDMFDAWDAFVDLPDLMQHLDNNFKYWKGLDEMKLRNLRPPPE

As to `N#Cc1c(N2CCC3(CC2)COC3)c2ccncc2[nH]c1=O` [Compound 24, 2-oxo-4-(2-oxa-7-azaspiro[3.5]nonane-7-yl)-1,2-dihydro-1,7-naphthyridin-3-carbonitrile], the IC50 was 4920 nM in data set [1], over 10000 nM in data set [2], over 10000 nM in [3] and over 10000 nM in [4].

Turning to `N#Cc1c(N2CCC3(CC2)CC3)c2ccncc2[nH]c1=O` [Compound 25, 2-oxo-4-(6-azaspiro[2.5]octane-6-yl)-1,2-dihydro-1,7-naphthyridin-3-carbonitrile], the “Vz_obs iv (apparent distribution volume)” value in [5] (intravenous bolus 1 mg/kg, n = 3) was 7.06 L/kg; in data set [8], 1.27 L/kg. For the same molecule, the Tmax in data set [5] (dog, plasma, po, intragastric 2 mg/kg, n = 3, median) was 30 min; in data set [9], 1 h. Further, the AUC(0-inf) in data set [5] (dog, plasma, po, intragastric 2 mg/kg, n = 3, read-out: AUCinf po) amounted to 4450 ng·h/mL; in data set [5] (dog, plasma, intravenous bolus 1 mg/kg, n = 3, read-out: AUCinf iv), 2240 ng·h/mL. For the same molecule, the half-life in data set [5] (dog, plasma, po, intragastric 2 mg/kg, n = 3, read-out: tz1/2 po (terminal elimination half-life) (converted)) was 567 min; in [5] (dog, plasma, intravenous bolus 1 mg/kg, n = 3, read-out: tz1/2 iv (terminal elimination half-life) (converted)), 624 min; in data set [6] it was 315 min; in data set [8], 30.6 min; in data set [9], 84 min. In addition, the bioavailability amounted to 99.1% in data set [5] (dog, plasma, dose iv/po 1/2 mg/kg, n = 3) and 74.2% in data set [9]. In addition, the clearance is 7.83 mL/min/kg in data set [5] (dog, plasma, intravenous bolus 1 mg/kg, n = 3, read-out: Cl_obs iv (clearance rate) (converted)) and 29.3 mL/min/kg in data set [8]. In addition, the IC50 in data set [1], in [2], in data set [3] and in [4] was over 3000 nM in each case. Besides, the “Original drug residual % at 60 min” value in [7] amounted to 87.5%. For the same molecule, the “k” value in [7] was 0.0022 min⁻¹. The CLint in [7] was 0.0044 mL · min^−1 · mg^−1 proteins. The AUC(0-t) came to 574 ng·h/mL in data set [8] and 2050 ng·h/mL in data set [9].

Turning to `N#Cc1c(N2CCC3(CCC3)CC2)c2cc(N3CC(N)C3)ncc2[nH]c1=O` [Compound 53, 6-(3-aminoazetidin-1-yl)-2-oxo-4-(7-azaspiro[3.5]nonane-7-yl)-1,2-dihydro-1,7-naphthyridin-3-carbonitrile], in data set [6], the half-life was 630 min. Moreover, in data set [7], the “Original drug residual % at 60 min” value was 91.4%, the “k” value was determined as 0.4821 min⁻¹ and the CLint is 0.0022 mL · min^−1 · mg^−1 proteins.

`CCc1cc2c(N3CCC4(CC3)CC4)c(C#N)c(=O)[nH]c2cn1` [Compound 76, 6-ethyl-2-oxo-4-(6-azaspiro[2.5]octane-6-yl)-1,2-dihydro-1,7-naphthyridin-3-carbonitrile] returned a half-life in [6] of 462 min. Further, in data set [7], the “Original drug residual % at 60 min” value is 87.3%, the “k” value stood at 0.0015 min⁻¹ and the CLint was 0.0030 mL · min^−1 · mg^−1 proteins. Besides, in [8], the “Vz_obs iv (apparent distribution volume)” value came out at 1.25 L/kg, the AUC(0-t) amounted to 1010 ng·h/mL, the clearance was 17.3 mL/min/kg and the half-life was 53.4 min. In data set [9], the time of peak concentration (Tmax) was determined as 1 h, the AUC(0-t) stood at 5750 ng·h/mL, the half-life is 576 min and the bioavailability came out at 113%.

The molecule `N#Cc1c(N2CCC3(CC2)CC3)c2ncccc2[nH]c1=O` [Compound 80, 2-oxo-4-(6-azaspiro[2.5]octane-6-yl)-1,2-dihydro-1,5-naphthyridin-3-carbonitrile] displayed a half-life in data set [6] of 47.5 min. Also, in data set [7], the “Original drug residual % at 60 min” value is reported as 41.7%, the “k” value was found to be 0.9877 min⁻¹ and the CLint is given as 0.0292 mL · min^−1 · mg^−1 proteins.

Take `CC(C)(O)c1cc2c(N3CCC4(CCC4)CC3)c(C#N)c(=O)[nH]c2cn1` [Compound 82, 6-(2-hydroxypropan-2-yl)-2-oxo-4-(7-azaspiro[3.5]nonane-7-yl)-1,2-dihydro-1,7-naphthyridin-3-carbonitrile]: the half-life in data set [6] was 124 min. In data set [7], the “Original drug residual % at 60 min” value was 72.4%, the “k” value is 0.9760 min⁻¹ and the CLint was 0.0112 mL · min^−1 · mg^−1 proteins.

`N#Cc1c(N2CCC3(CC2)CC3)c2cc(C(O)C3CC3)ncc2[nH]c1=O` (centres unmarked) [Compound 90, 6-(cyclopropyl (hydroxy)methyl)-2-oxo-4-(6-azaspiro[2.5]octane-6-yl)-1,2-dihydro-1,7-naphthyridin-3-carbonitrile]: the half-life in data set [6] is 187 min. In data set [7], the “Original drug residual % at 60 min” value came out at 80.5%, the “k” value was found to be 0.0037 min⁻¹ and the CLint was 0.0074 mL · min^−1 · mg^−1 proteins. Also, in data set [8], the “Vz_obs iv (apparent distribution volume)” value is 1.38 L/kg, the AUC(0-t) is 1590 ng·h/mL, the clearance is 10.5 mL/min/kg and the half-life was 88.8 min. In data set [9], the Tmax was determined as 1 h, the AUC(0-t) was 3700 ng·h/mL, the half-life was 269 min and the bioavailability was 47.4%.

For `CC(C)Cn1c(=O)n(C)c(=O)c2[nH]cnc21` [IBMX], the “inhibition activity on PDE9” value in data set [10] is “no or very low inhibition activity”.

Consider `CC(=O)Nc1ccc(-c2c[nH]c(=O)cn2)cc1` [SKF94120], for which the “inhibition activity on PDE9” value in [10] is recorded as “no or very low inhibition activity”.

As to `Nc1ncnc2c1ncn2[C@@H]1O[C@@H]2COP(=O)(O)O[C@H]2[C@H]1O` [cAMP, cyclic adenosine monophosphate], the Km in [11] was 230 µM.

Take `Nc1nc2c(ncn2[C@@H]2O[C@@H]3COP(=O)(O)O[C@H]3[C@H]2O)c(=O)[nH]1` [cGMP, cyclic guanosine monophosphate]: the Km in data set [11] was 0.17 µM.

For `OCCN(CCO)c1nc(N2CCCCC2)c2nc(N(CCO)CCO)nc(N3CCCCC3)c2n1` [dipyridamole], the “inhibition activity on PDE9” value in [10] was “no or very low inhibition activity”.

For the molecule `COc1ccc(C2CNC(=O)C2)cc1OC1CCCC1` (centres unmarked) [rolipram], the “inhibition activity on PDE9” value in data set [10] was “no or very low inhibition activity”.

For `CCOC(=O)C1=C[C@]2(CC)CCCN3CCc4c(n1c1ccccc41)[C@@H]32` [vinpocetine], in data set [10], the “inhibition activity on PDE9” value was “no or very low inhibition activity”.
